Assay results published in patent publication US11872291B2, “Fibroblast activation protein (FAP)-targeted imaging and therapy” (priority 2016, dated 2024).

Assays:
[1] = tested on: MDA-MB-231 subcutaneous tumor; assay: In vivo FAP targeted CAR T-cell therapy; parameters: species or system mice
Protocol: In vivo FAP targeted CAR T-cell therapy: MDA-MB-231 subcutaneous tumor was developed in female NSG mice by injecting 5 million cancer cells. Once the tumor volume reached ˜100 mms the mice were randomized into three different groups and treatment was initiated. Mice in all the groups were administered with 15 million CAR T-cells which has an scFv domain that binds specifically and tightly with fluorescein. 2 h after administration of the CAR T-cells mice in all the groups were given the first dose of the respective test agents. […] During therapy, mice in different groups were administered with the respective test agents intravenously on every other day. As a measure of gross toxicity mice were also weighed at every dosing.

[2] = tested on: FaDu, HT29, MDA-MB231 and KB cancer cells; assay: Confocal microscopy, uptake of JFL-L1-FM by cancer cells; type: cell-based; settings: 100 nM, 1 h incubation at 37° C.
Protocol: Confocal Microscopy. FaDu, HT29, MDA-MB231 and KB cancer cells (30,000) were plated on 4 well confocal plate. The cells were incubated with […] JFL-L1-FM and incubated for 1 h. The unbound fluorescence was removed by washing the cells three times with the medium. The cell bound fluorescence was observed by using Olympus confocal microscopy.
In Vitro Binding Affinity and Confocal Imaging. The cancer cells FaDU, HT29, MDA-MB231 and KB were investigated for the expression of FAP. For this purpose, the cancer cells were seeded on a confocal well plate and incubated with 100 nM of the FAP targeted FM conjugate (JFL-L1-FM) After 1 h incubation at 37° C. the cells were washed to remove any excess of the […] under confocal microscopy to investigate any uptake of the dye, as shown in FIG. 11. […] This implied absence of FAP on these cancer cells.

[3] = tested on: FaDu, HT29, MDA-MB231 or KB tumor bearing mice; assay: In vivo fluorescence imaging and biodistribution in tumor xenografts; settings: i.v., 2 h post injection; harvested organs
Protocol: In Vivo Fluorescence Imaging and Biodistribution. For the development of subcutaneous tumor xenografts, MDA-MB231, OVCAR-3 and HEC-1B 5×10^6 cells in 0.2 ml sterile PBS were injected subcutaneously in the right hind flank of the female nu/nu mice. Tumor imaging was initiated once the tumor volume reached between 200 mm^3 and 300 mm^3. Each tumor-bearing mouse was intravenously injected (via tail vein) with 10 nanomoles of fluorescence dye conjugate either in the presence or absence of a 100-fold excess of the unlabeled conjugate. Animals were euthanized two hours post injection using CO2 and the images were acquired using Caliper IVIS Luminal II. After performing the whole body image, the organs of interest were harvested and imaged to inspect the accumulation of the fluorescence in these organs. The image acquisition parameters were as follows: i) lamp level-high, ii) excitation-745 nm, iii) emission-ICG, iv) binning (M) 4M, (v) f-stop-4, (vi) FOV-12.5, (vii) acquisition time, 5 s.
In Vivo Fluorescence Imaging. To investigate the ability of JFL-L1-S0456 to accumulate in vivo mice were implanted with FaDu (n=5), HT29 (n=5), MDA-MB231(n=5) or KB (n=5) cells. These tumor bearing mice were intravenously injected with the NIR dye conjugate alone or co-injected with excess of the FAP targeting ligand JFL. […]

[4] = 10 nmoles i.v. every other day with 15 million anti-fluorescein CAR T-cells

| SMILES | tumor growth rate after 1 week of treatment [1, 4] | tumor volume at the beginning of the study [1, 4] | tumor growth rate, competition group ([1]; 10 nmoles plus 100-fold excess of JFL, with CAR T-cells) | weight loss (gross toxicity) ([1]; all arms of the study) | uptake of dye conjugate observed under confocal microscopy [2] | uptake of the dye conjugate in the liver and kidney [3] |
| --- | --- | --- | --- | --- | --- | --- |
| C[C@@H](NC(=O)c1ccnc(CNC(=O)CCC(=O)NC(CSC2CC(=O)N(c3ccc(-c4c5ccc(=O)cc-5oc5cc(O)ccc45)c(C(=O)O)c3)C2=O)C(=O)O)c1)C(=O)N1CC(F)(F)C[C@H]1C#N (stereo partly drawn) [JFL-L1-FM] | slight separation in the tumor growth rate was observed | did not display any reduction in tumor volume | did not show any difference in the tumor growth rate | No weight loss was observed | no uptake of dye conjugate was observed | – |
| C[C@@H](NC(=O)c1ccnc(CNC(=O)CCC(=O)N[C@@H](CSC2CC(=O)N(CCNC(=O)CCc3ccc(OC4=C(/C=C/C5=[N+](CCCCS(=O)(=O)O)c6ccc(S(=O)(=O)[O-])cc6C5(C)C)CCC/C4=C\C=C4\N(CCCCS(=O)(=O)O)c5ccc(S(=O)(=O)O)cc5C4(C)C)cc3)C2=O)C(=O)O)c1)C(=O)N1CC(F)(F)C[C@H]1C#N (stereo partly drawn) [JFL-L1-S0456] | – | – | – | – | – | minimal or no uptake |
